Assay results reported in patent US11634412B2, “3-phosphoglycerate dehydrogenase inhibitors and uses thereof” (Raze Therapeutics, Inc., priority 2016, dated 2023).

Biological target: T1, Full length (FL) 3-Phosphoglycerate Dehydrogenase (PHGDH) (Homo sapiens, UniProt O43175)
T1 construct: Full length (FL) 3-Phosphoglycerate Dehydrogenase (PHGDH) Diaphorase coupled assay (500 uM NAD)
T1 sequence (O43175 1-533): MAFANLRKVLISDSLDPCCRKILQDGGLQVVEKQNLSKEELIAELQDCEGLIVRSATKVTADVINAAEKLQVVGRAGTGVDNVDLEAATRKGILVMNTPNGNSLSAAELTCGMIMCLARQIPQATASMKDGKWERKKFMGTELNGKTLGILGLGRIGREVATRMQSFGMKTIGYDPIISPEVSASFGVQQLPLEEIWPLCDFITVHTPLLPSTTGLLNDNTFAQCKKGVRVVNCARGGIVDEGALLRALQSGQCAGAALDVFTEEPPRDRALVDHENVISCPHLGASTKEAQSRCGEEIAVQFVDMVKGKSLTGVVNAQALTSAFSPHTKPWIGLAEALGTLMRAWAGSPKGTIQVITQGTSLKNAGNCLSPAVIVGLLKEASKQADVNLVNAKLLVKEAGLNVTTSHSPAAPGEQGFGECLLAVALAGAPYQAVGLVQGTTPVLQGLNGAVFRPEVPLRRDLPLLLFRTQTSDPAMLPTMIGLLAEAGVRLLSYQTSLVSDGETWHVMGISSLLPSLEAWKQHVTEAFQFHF
Test: Full length (FL) PHGDH Diaphorase coupled assay (20 uM NAD)
Type: biochemical
Details: full-length PHGDH 10 nM, 30° C. 60 minutes, resorufin fluorescence
Experimental: (§1) PHGDH activity was determined by detecting the NADH produced during the reaction. Diaphorase was used to catalyze the oxidation of NADH with the concomitant reduction of resazurin to the fluorescent product resorufin. Resorufin fluorescence quantitatively reflected the production of NADH by the PHGDH reaction. To drive the forward reaction, two enzymes in the serine synthesis pathway subsequent to PHGDH, Phosphoserine aminotransferase (PSAT1) and phosphoserine phosphatase (PSPH) were also added to the reaction.

Row | IC50 | Structure (SMILES)
1 | 1000 to 5000 nM | Cn1c(C(=O)NC2(c3ccc(Br)cc3)CCOC2)cc2c(Cl)c(Cl)ccc21 (racemic) [I-135 e142, (±)-N-[3-(4-Bromophenyl)tetrahydrofuran-3-yl]-4,5-dichloro-1-methyl-indole-2-carboxamide]
2 | 1000 to 5000 nM | Cn1c(C(=O)NC2(c3cccc(C(N)=O)c3)CCOC2)cc2c(Cl)c(Cl)ccc21 (racemic) [I-141 e140, (±)-N-[3-(3-Carbamoylphenyl)tetrahydrofuran-3-yl]-4,5-dichloro-1-methyl-indole-2-carboxamide]
3 | 1000 to 5000 nM | CC(=O)NS(=O)(=O)N1CCC(NC(=O)c2cc3c(Cl)c(Cl)ccc3n2C)(c2cccc(C(=O)O)c2)CC1 [I-151 e10]
4 | 5000 to 10000 nM | CC(=O)NS(=O)(=O)N1CC(NC(=O)c2cc3c(Cl)c(Cl)ccc3n2C)(c2ccccc2)C1 [I-148 e9]

More lines, now with the values behind:

Row | Structure (SMILES) | IC50
5 | CNC(=O)NS(=O)(=O)N1CCCC(NC(=O)c2cc3c(Cl)c(Cl)ccc3n2C)(c2ccc(C(=O)O)cc2)C1 (racemic) [I-140 e15] | 1 to 1000 nM
6 | CC(=O)NS(=O)(=O)N1CCC(NC(=O)c2cc3c(Cl)c(Cl)ccc3n2C)(c2cccc(CO)c2)CC1 [I-149 e12] | 5000 to 10000 nM
7 | CC(=O)Nc1cccc(C2(NC(=O)c3cc4c(Cl)c(Cl)ccc4n3C)CCN(S(=O)(=O)NC(C)=O)CC2)c1 [I-153 e2] | 5000 to 10000 nM
8 | Cn1c(C(=O)NC2(c3ccc(C(=O)O)cc3)CCOC2)cc2c(Cl)c(Cl)ccc21 (racemic) [I-137 e141, (±)-4-[3-[(4,5-Dichloro-1-methyl-indole-2-carbonyl)amino]tetrahydrofuran-3-yl]benzoic acid] | 1 to 1000 nM
9 | Cn1c(C(=O)NC2(c3ccc(-c4nnn[nH]4)cc3)CCOC2)cc2c(Cl)c(Cl)ccc21 (racemic) [I-128 e148, (±)-4,5-Dichloro-1-methyl-N-[3-[4-(1H-tetrazol-5-yl)phenyl]tetrahydro-furan-3-yl]indole-2-carboxamide] | 1 to 1000 nM
10 | Cn1c(C(=O)NC2(c3ccc(C(=O)O)cc3)CCOC2)cc2c(Cl)c(Cl)ccc21 (racemic) [I-136 e145, (±)-4-[3-[(4,5-Dichloro-1-methyl-indole-2-carbonyl)amino]tetrahydrofuran-3-yl]benzoic acid] | 1 to 1000 nM
11 | CNC(=O)NS(=O)(=O)N1CCCC(NC(=O)c2cc3c(Cl)c(Cl)ccc3n2C)(c2cccc(C#N)c2)C1 (racemic) [I-142 e7] | 5000 to 10000 nM
12 | CC(=O)NS(=O)(=O)N1CCC(NC(=O)c2cc3c(Cl)c(Cl)ccc3n2C)(c2ccc(C(=O)O)cc2)CC1 [I-144 e11] | 1 to 1000 nM

Biological target: T1, Full length (FL) 3-Phosphoglycerate Dehydrogenase (PHGDH)
Test: Full length (FL) PHGDH Diaphorase coupled assay (500 uM NAD)
Type: biochemical
Details: full-length PHGDH 5 nM, 30° C. 60 minutes, resorufin fluorescence
Experimental: Full length (FL) 3-Phosphoglycerate Dehydrogenase (PHGDH) Diaphorase coupled assay (500 uM NAD)
as §1
Briefly, serial dilution of compounds were incubated in a volume of 20 μL in 384 well plates with the assay mixture containing 5 nM PHGDH, 500 nM PSAT1, 500 nM PSPH, 500 μM NAD^+, 80 uM 3-phosphoglycerate, 1 mM glutamate, 57 uM Resazurin and 0.2 mg/ml Diaphorase in assay buffer containing 50 mM Trisethanoloamine (TEA) pH8.0, 10 mM MgCl2, 0.01% Tween-20 and 0.05% Bovine Serum Albumin (BSA). The plate was then incubated at 30° C. for 60 minutes and resorufin fluorescence was measured at emission wavelength 598 nm following excitation at 525 nm. The positive control consisted of the complete reaction mixture with 4% DMSO and was set to 0% inhibition.

Row | IC50 | Structure (SMILES)
13 | 1 to 1000 nM | COc1ccc2c(cc(C(=O)NC3(c4ccc(C(C)C(=O)O)cc4F)CCOC3)n2C)c1Cl (racemic) [I-40 e55]
14 | 1 to 1000 nM | Cn1c(C(=O)NC2(c3ccc(C(CC4CC4)C(=O)O)cc3)COC2)cc2c(Cl)c(Cl)ccc21 (racemic) [I-3 e124]
15 | 1 to 1000 nM | COc1cc2c(cc(C(=O)NC3(c4ccc(C(=O)O)cc4Cl)COC3)n2C)c(Cl)c1Cl [I-66 e67]
16 | 1 to 1000 nM | Cn1c(C(=O)NC2(c3ccc(C(C)(C)C(=O)O)cc3F)CCOC2)cc2c(Cl)c(Cl)ccc21 (racemic) [I-54 e79]
17 | 1 to 1000 nM | CC(C)C(C(=O)O)c1ccc(C2(NC(=O)c3cc4c(Cl)c(Cl)ccc4n3C)COC2)cc1 (racemic) [I-30 e134]
18 | 1 to 1000 nM | COc1ccc2c(cc(C(=O)NC3(c4ccc(C(=O)NS(C)(=O)=O)cc4)COC3)n2C)c1Cl [I-162 e165, 4-Chloro-5-methoxy-1-methyl-N-(3-(4-((methylsulfonyl)carbamoyl)-phenyl)oxetan-3-yl)-1H-indole-2-carboxamide]
19 | 1000 to 5000 nM | Cn1c(C(=O)NC2(c3ccc(C(=O)O)cc3)CCN(c3ccccc3)C2)cc2c(Cl)c(Cl)ccc21 (racemic) [I-121 e21]
20 | 1 to 1000 nM | Cn1c(C(=O)NC2(c3ccc(C4(C(=O)O)CC4)cc3)COC2)cc2c(Cl)c(Cl)ccc21 [I-28 e108]
21 | 1000 to 5000 nM | CCc1cc(C2(NC(=O)c3cc4c(Cl)c(Cl)ccc4n3C)CCOC2)ccc1C(=O)O (racemic) [I-88 e156, (±)-4-[3-[(4,5-Dichloro-1-methyl-indole-2-carbonyl)amino]tetrahydro-furan-3-yl]-2-ethyl-benzoic acid]
22 | 1 to 1000 nM | COc1cc2c(cc(C(=O)NC3(c4ccc(CC(=O)O)cc4F)COC3)n2C)c(Cl)c1C [I-62 e46]
23 | 1 to 1000 nM | COc1cc2c(cc(C(=O)NC3(c4ccc(C(=O)O)cc4F)COC3)n2C)c(Cl)c1F [I-56 e78]
24 | 1 to 1000 nM | Cc1ccc2c(cc(C(=O)NC3(c4ccc(CC(=O)O)cc4F)COC3)n2C)c1Cl [I-63 e44]
25 | 1 to 1000 nM | COc1cc2c(cc(C(=O)NC3(c4ccc(C(=O)O)cc4F)COC3)n2C)c(Cl)c1Cl [I-76 e42]
26 | 1 to 1000 nM | COc1cc2c(cc(C(=O)NC3(c4ccc(C(=O)O)cc4Cl)COC3)n2C)c(Cl)c1F [I-44 e76]
27 | 1000 to 5000 nM | Cn1c(C(=O)NC2(c3ccc(C(=O)O)c(C4CC4)c3)CCOC2)cc2c(Cl)c(Cl)ccc21 (racemic) [I-101 e157, (±)-2-cyclopropyl-4-[3-[(4,5-dichloro-1-methyl-indole-2-carbonyl)amino]-tetrahydrofuran-3-yl]benzoic acid]
28 | 1 to 1000 nM | COc1ccc2c(cc(C(=O)NC3(c4ccc(C(=O)O)cc4Cl)COC3)n2C)c1Cl [I-65 e69]
29 | 1 to 1000 nM | COc1cc2c(cc(C(=O)NC3(c4ccc(CC(=O)O)cc4F)COC3)n2C)c(Cl)c1Cl [I-86 e45]
30 | 1 to 1000 nM | Cn1c(C(=O)NC2(c3ccc(C(=O)O)c(C#N)c3)CCOC2)cc2c(Cl)c(Cl)ccc21 (racemic) [I-120 e154, (±)-2-Cyano-4-(3-(4,5-dichloro-1-methyl-1H-indole-2-carboxamido)tetrahydrofuran-3-yl)benzoic acid]
31 | 1000 to 5000 nM | Cn1c(C(=O)NC2(c3ccc(C(=O)O)nc3)CCOC2)cc2c(Cl)c(Cl)ccc21 (racemic) [I-73 e28]
32 | 1 to 1000 nM | Cn1c(C(=O)NC2(c3ccc(C(=O)O)cc3Cl)CCOC2)cc2c(Cl)c(Cl)ccc21 (racemic) [I-107 e24]
33 | 1 to 1000 nM | COc1ccc2c(cc(C(=O)NC3(c4ccc(C(C(=O)O)C5CCC(O)CC5)cc4)COC3)n2C)c1Cl (racemic) [I-160 e138, (±)-2-[4-[3-[(4-Chloro-5-methoxy-1-methyl-indole-2-carbonyl)amino]oxetan-3-yl]phenyl]-2-(4-hydroxycyclohexyl)acetic acid]

More lines, now with the values behind:

Row | Structure (SMILES) | IC50
34 | Cn1c(C(=O)NC2(c3ccc(C(=O)O)cc3)CCOC2)cc2c(Cl)c(Cl)c(OCC3CNC(=O)O3)cc21 (racemic) [I-111 e95] | 1 to 1000 nM
35 | COc1ccc2c(cc(C(=O)NC3(c4ccc(C(C)C(=O)O)cc4)CCOC3)n2C)c1Cl (racemic) [I-64 e57] | 1 to 1000 nM
36 | Cn1c(C(=O)NC2(c3ccc(C(=O)O)cc3)CCOC2)cc2c(Cl)c(Cl)c(OCC3COC3)cc21 (racemic) [I-80 e103] | 1 to 1000 nM
37 | CC(=O)N1CCC(NC(=O)c2cc3c(Cl)c(Cl)ccc3n2C)(c2ccc(C(=O)O)cc2)C1 (racemic) [I-110 e20] | 1 to 1000 nM
38 | CCCC(C(=O)O)c1ccc(C2(NC(=O)c3cc4c(Cl)c(Cl)ccc4n3C)COC2)cc1 (racemic) [I-24 e114] | 1 to 1000 nM
39 | CC(C(=O)O)c1ccc(C2(NC(=O)c3cc4c(Cl)c(Cl)ccc4n3C)COC2)c(F)c1 (stereo not shown) [I-70 e61] | 1 to 1000 nM
40 | Cn1c(C(=O)NC2(c3ccc(C(=O)O)cc3)CCOC2)cc2c(Cl)c(C3CC3)ccc21 (racemic) [I-96 e36] | 1 to 1000 nM
41 | COc1cc2c(cc(C(=O)NC3(c4ccc(C(=O)O)cc4C)COC3)n2C)c(Cl)c1F [I-47 e77] | 1 to 1000 nM
42 | Cn1c(C(=O)NC2(c3ccc(C(C)(C)C(=O)O)cc3)COC2)cc2c(Cl)c(Cl)ccc21 [I-36 e107] | 1 to 1000 nM
43 | Cn1c(C(=O)NC2(c3ccc(CC(=O)O)cc3C#N)CCOC2)cc2c(Cl)c(Cl)ccc21 (racemic) [I-71 e158, (±)-2-[3-Cyano-4-[3-[(4,5-dichloro-1-methyl-indole-2-carbonyl)amino]tetrahydro-furan-3-yl]phenyl]acetic acid] | 1000 to 5000 nM
44 | COc1cc2c(cc(C(=O)NC3(c4ccc(C(C)C(=O)O)cc4F)CCOC3)n2C)c(Cl)c1Cl (racemic) [I-55 e54] | 1 to 1000 nM
45 | CN(C)CCOc1cc2c(cc(C(=O)NC3(c4ccc(C(=O)O)cc4)CCOC3)n2C)c(Cl)c1Cl (racemic) [I-97 e102] | 1 to 1000 nM
46 | COCCOc1cc2c(cc(C(=O)NC3(c4ccc(C(=O)O)cc4)CCOC3)n2C)c(Cl)c1Cl (racemic) [I-100 e99] | 1 to 1000 nM
